The values below come from patent publication US5106951A, “Antibody conjugates” (NeoRx Corporation, priority 1989, dated 1992).

Holding throughout (assay): Binding of doxorubicin by synthetic oligopeptide, absorbance titration
In experiment [1] the target is synthetic oligopeptide, Peptide 1, CKWGWK-amide. The settings on record: pH 7.0 0.1M phosphate buffer, doxorubicin absorption at 475 nm or 565 nm titrated with peptide. The text has this: (§1) Experiments have been conducted to assess the use of synthetic oligopeptides to bind the drug doxorubicin. Binding was followed by changes in the visible spectrum of doxorubicin, and analyzed by titrating the drug absorption spectrum at 475 nm or 565 nm with varying concentrations of peptide, in pH 7.0 0.1M phosphate buffer. Binding curves were fit to a single hyperbola with the program Enzfitter (Elsevier-Biosoft). These peptides were designed to test the effectiveness in intercalating doxorubicin of a 1,3-spacing between amino acids containing aromatic groups in their side chains (i.e., a single non-aromatic amino acid intervenes between the two residues having aromatic side chains). The amino acids are C, cys; K, lys; W, trp; G, gly; E, glu; D, asp; Fmoc, 9-fluorenylmethoxycarbonyl, attached to the lysine epsilon-amino group; and MIANS, 2-(4'-maleimidylanilino)naphthalene-6-sulfonic acid attached to cysteine.

Experiment [2] addresses synthetic oligopeptide, Peptide 10, EEK(Fmoc)GK(Fmoc)EEGGC. The settings on record: pH 7.0 0.1M phosphate buffer; doxorubicin absorption at 475 nm or 565 nm titrated with peptide.
From the text: as §1

For experiment [3], the target named is synthetic oligopeptide, Peptide 2, CKWGWGWK-amide. The note with it: pH 7.0 0.1M phosphate buffer, doxorubicin absorption at 475 nm or 565 nm titrated with peptide.
From the text: as §1

Experiment [4] deals with synthetic oligopeptide, Peptide 3, […]-amide. The note with it: pH 7.0 0.1M phosphate buffer, doxorubicin absorption at 475 nm or 565 nm titrated with peptide.
From the text: as §1

Experiment [5] addresses synthetic oligopeptide, Peptide 4, KK(Fmoc)GK(Fmoc)KGGC. The note with it: pH 7.0 0.1M phosphate buffer, doxorubicin absorption at 475 nm or 565 nm titrated with peptide.
From the text: as §1

Experiment [6] deals with synthetic oligopeptide, Peptide 7, EK(Fmoc)GK(Fmoc)EGGC. The note with it: pH 7.0 0.1M phosphate buffer; 1,3 spacing of aromatic side chains.
From the text: as §1

Experiment [7] deals with synthetic oligopeptide, Peptide 9, EK(Fmoc)EK(Fmoc)EGGC. The settings on record: pH 7.0 0.1M phosphate buffer, doxorubicin absorption at 475 nm or 565 nm titrated with peptide.
From the text: as §1

Experiment [8] concerns the target synthetic oligopeptide, Peptide 5, EK(Fmoc)GGK(Fmoc)EGGC. The note with it: pH 7.0 0.1M phosphate buffer, 1,4 spacing of aromatic side chains.
From the text: as §1, with “These peptides were designed to test the effectiveness in intercalating doxorubicin of a 1,3-spacing between amino acids containing aromatic groups in their side chains (i.e., a single non-aromatic amino acid intervenes between the two residues having aromatic side chains).” left out

In experiment [9] the target is synthetic oligopeptide, Peptide 6, EK(Fmoc)K(Fmoc)EGGC. The settings on record: pH 7.0 0.1M phosphate buffer, 1,2 spacing of aromatic side chains.
From the text: as §1, with “These peptides were designed to test the effectiveness in intercalating doxorubicin of a 1,3-spacing between amino acids containing aromatic groups in their side chains (i.e., a single non-aromatic amino acid intervenes between the two residues having aromatic side chains).” left out

For experiment [10], the target named is synthetic oligopeptide, Peptide 8, DK(Fmoc)GK(Fmoc)DGGC (DK(Fmoc)GK(Fmoc)DGGC-amide). The settings on record: 50 μM doxorubicin in 0.1M phosphate buffer at pH 7.0, 475 nm, fit to single hyperbola; read-out: Kd (apparent dissociation constant).
From the text: as §1
No absorbance change was observed when the oligopeptide was added to buffer in the absence of doxorubicin. […] Oligopeptide carrier alone was added to the reference cuvette. The binding constant is derived from the nonlinear least squares best fit to a single hyperbola using the program Enzfitter (Elsevier-Biosoft), yielding an apparent dissociation constant of 22 μM.

In experiment [11] the test system is synthetic oligopeptide, Peptide 11, EC(MIANS)GC(MIANS)EGGC(Acm).
From the text: as §1
This oligopeptide was prepared by first synthesizing the oligopeptide ECGCEGGC(Acm), wherein "Acm" represents an acetamidomethyl protecting group. The synthesis was conducted using the solid phase methodology of Barany and Merrifield, supra, and Houghten, R. A., Proc Nat. Acad. Sci. USA 82:5131, 1985. The number of cysteine thiols per peptide was 1.8 as measured by titration with Ellman's reagent. […]
The peptide concentration was determined with ninhydrin. […]

On to `COc1cccc2c1C(=O)c1c(O)c3c(c(O)c1C2=O)C[C@@](O)(C(=O)CO)C[C@@H]3O[C@H]1C[C@H](N)[C@H](O)[C@H](C)O1` [Doxorubicin, doxorubicin], for which the Kd entry in experiment [1] was “no detectable”; in [1] (listed as doxorubicin) it was “no detectable binding”; in experiment [2] it was 33 µM; in experiment [3], “same”; in experiment [3] (listed as doxorubicin), “no detectable binding”; in experiment [4], “same”. Moreover, the Kd entry in experiment [4] (listed as doxorubicin) is “no detectable binding”; in [5], “same”; in experiment [5] (listed as doxorubicin), “no detectable binding”; in [6] it was 280 µM; in experiment [7], “no detectable”; in [7] (listed as doxorubicin), “binding is not observed”. Also, the Kd entry was “same” in [8]; “the same result is obtained” in [8] (listed as doxorubicin); “same” in experiment [9]; “undetectable binding” in [9] (listed as doxorubicin); 22 µM in [10]; 48 µM in experiment [11] (pH 7.0 0.1M phosphate buffer, at 565 or 580 nm, read-out: Kd (best-fit apparent dissociation constant)). The “improvement of binding of doxorubicin by MIANS side chain versus FMOC” value in [11] (MIANS peptide compared with FMOC peptide, 1,3 spacing) is “about 6 fold”.
